{
  "source": "ChEMBL document CHEMBL1130908",
  "about": "“Diastereoselective two-directional synthesis and cation transport ability of the central tristetrahydrofuranyl unit of meso polyether glabrescol as naturally occurring podand” (Bioorg Med Chem Lett, 1998)",
  "data": [
    {"assay": "Compound was evaluated for cytotoxic activity against KB cells.", "format": "functional, cell-based", "details": "Homo sapiens", "units": {"IC50": "µg/mL"}, "values": [
      {"smiles": "CC(C)(O)/C=C/C[C@](C)(O)[C@H]1CC[C@@](C)([C@H]2CC[C@H]([C@]3(C)CC[C@H]([C@@](C)(O)C/C=C/C(C)(C)OO)O3)O2)O1", "IC50": 5.3},
      {"smiles": "CC(C)=CCC[C@](C)(O)[C@H]1CC[C@](C)([C@@H]2CC[C@H]([C@]3(C)CC[C@@H]([C@](C)(O)CCC=C(C)C)O3)O2)O1", "IC50": 7},
      {"smiles": "CC(=O)O[C@@H](CC[C@@H](OC(C)=O)[C@]1(C)CC[C@H]([C@@](C)(O)CCC=C(C)C)O1)[C@@]1(C)CC[C@H]([C@@](C)(O)CCC=C(C)C)O1", "IC50": "> 100"},
      {"smiles": "CC(=O)O[C@@H](CC[C@@H](O)[C@]1(C)CC[C@H]([C@@](C)(O)CCC=C(C)C)O1)[C@@]1(C)CC[C@H]([C@@](C)(O)CCC=C(C)C)O1", "IC50": 0.52}
    ]}
  ]
}
